# Data taken from US8410161B2, “Thioxanthone ring system derivatives” (National Defense Medical Center, priority 2010, dated 2013).
# Assays:
# [1] = tested on: OVCAR-4; assay: NCI in vitro DTP human cell line screen, OVCAR-4; format: cell-based; conditions: Ovarian Cancer, 1.00E−5 Molar
# Procedure: (§1) Then, a cell toxicity assay of the cancer lines made by National Cancer Institute will be discussed as follows. The cell toxicity assay is performed by choosing ten compounds (existing certification numbers) from the 59 compounds disclosed in the present invention first.
# [2] = tested on: HCT-116; assay: NCI in vitro DTP human cell line screen, HCT-116; format: cell-based; conditions: Colon Cancer, 1.00E−5 Molar
# Procedure: as §1
# [3] = tested on: 786-0; assay: NCI in vitro DTP human cell line screen, 786-0; format: cell-based; conditions: Renal Cancer, 1.00E−5 Molar
# Procedure: as §1
# [4] = tested on: HOP-62; assay: NCI in vitro DTP human cell line screen, HOP-62; format: cell-based; conditions: Non-Small Cell Lung Cancer, 1.00E−5 Molar
# Procedure: as §1
# [5] = tested on: HL-60(TB); assay: NCI in vitro DTP human cell line screen, HL-60(TB); format: cell-based; conditions: Leukemia, 1.00E−5 Molar
# Procedure: as §1
# [6] = tested on: M14; assay: NCI in vitro DTP human cell line screen, M14; format: cell-based; conditions: Melanoma, 1.00E−5 Molar
# Procedure: as §1
# [7] = tested on: OVCAR-5; assay: NCI in vitro DTP human cell line screen, OVCAR-5; format: cell-based; conditions: Ovarian Cancer, 1.00E−5 Molar
# Procedure: as §1
# [8] = tested on: DU145; assay: NCI in vitro DTP human cell line screen, DU145; format: cell-based; conditions: Prostate Cancer, 1.00E−5 Molar
# Procedure: as §1
# [9] = tested on: OVCAR-3; assay: NCI in vitro DTP human cell line screen, OVCAR-3; format: cell-based; conditions: Ovarian Cancer, 1.00E−5 Molar
# Procedure: as §1
# [10] = tested on: LOX IMVI; assay: NCI in vitro DTP human cell line screen, LOX IMVI; format: cell-based; conditions: Melanoma, 1.00E−5 Molar
# Procedure: as §1
# [11] = tested on: SK-MEL-5; assay: NCI in vitro DTP human cell line screen, SK-MEL-5; format: cell-based; conditions: Melanoma, 1.00E−5 Molar
# Procedure: as §1
# [12] = tested on: SNB-19; assay: NCI in vitro DTP human cell line screen, SNB-19; format: cell-based; conditions: CNS Cancer, 1.00E−5 Molar
# Procedure: as §1
# [13] = tested on: HCT-15; assay: NCI in vitro DTP human cell line screen, HCT-15; format: cell-based; conditions: Colon Cancer, 1.00E−5 Molar
# Procedure: as §1
# [14] = tested on: SW-620; assay: NCI in vitro DTP human cell line screen, SW-620; format: cell-based; conditions: Colon Cancer, 1.00E−5 Molar
# Procedure: as §1
# [15] = tested on: CCRF-CEM; assay: NCI in vitro DTP human cell line screen, CCRF-CEM; format: cell-based; conditions: Leukemia, 1.00E−5 Molar
# Procedure: as §1
# [16] = tested on: TK-10; assay: NCI in vitro DTP human cell line screen, TK-10; format: cell-based; conditions: Renal Cancer, 1.00E−5 Molar
# Procedure: as §1
# [17] = tested on: HT29; assay: NCI in vitro DTP human cell line screen, HT29; format: cell-based; conditions: Colon Cancer, 1.00E−5 Molar
# Procedure: as §1
# [18] = tested on: NCI-H322M; assay: NCI in vitro DTP human cell line screen, NCI-H322M; format: cell-based; conditions: Non-Small Cell Lung Cancer, 1.00E−5 Molar
# Procedure: as §1
# [19] = tested on: BT-549; assay: NCI in vitro DTP human cell line screen, BT-549; format: cell-based; conditions: Breast Cancer, 1.00E−5 Molar
# Procedure: as §1
# [20] = tested on: 60 cancer lines; assay: NCI cell toxicity assay of 60 cancer lines, whole panel summary; format: cell-based, human; conditions: 1.00E−5 Molar
# Procedure: as §1
# [21] = tested on: RPMI-8226; assay: NCI in vitro DTP human cell line screen, RPMI-8226; format: cell-based; conditions: Leukemia, 1.00E−5 Molar
# Procedure: as §1
# [22] = tested on: NCI-H226; assay: NCI in vitro DTP human cell line screen, NCI-H226; format: cell-based; conditions: Non-Small Cell Lung Cancer, 1.00E−5 Molar
# Procedure: as §1
# [23] = tested on: A3 cell lines; assay: MTT assay, A3 cell lines (lung cancer stem cell); format: cell-based
# Source text: Please to FIG. 4B, various cell viabilities of the A3 cell lines can be obtained through the MTT assay and illustrated in FIG. 4B while the compounds No. 1˜30 are used to treat A3 cell lines, wherein A3 cell lines are lung cancer stem cell.
# [24] = tested on: UACC-62; assay: NCI in vitro DTP human cell line screen, UACC-62; format: cell-based; conditions: Melanoma, 1.00E−5 Molar
# Procedure: as §1
# [25] = tested on: HCC-2998; assay: NCI in vitro DTP human cell line screen, HCC-2998; format: cell-based; conditions: Colon Cancer, 1.00E−5 Molar
# Procedure: as §1
# [26] = tested on: RXF 393; assay: NCI in vitro DTP human cell line screen, RXF 393; format: cell-based; conditions: Renal Cancer, 1.00E−5 Molar
# Procedure: as §1
# [27] = tested on: K562; assay: NCI in vitro DTP human cell line screen, K562; format: cell-based; conditions: Leukemia, 1.00E−5 Molar
# Procedure: as §1
# [28] = tested on: SR; assay: NCI in vitro DTP human cell line screen, SR; format: cell-based; conditions: Leukemia, 1.00E−5 Molar
# Procedure: as §1
# [29] = tested on: HS 578-T; assay: NCI in vitro DTP human cell line screen, HS 578-T; format: cell-based; conditions: Breast Cancer, 1.00E−5 Molar
# Procedure: as §1
# [30] = tested on: SN12C; assay: NCI in vitro DTP human cell line screen, SN12C; format: cell-based; conditions: Renal Cancer, 1.00E−5 Molar
# Procedure: as §1
# [31] = tested on: SF-268; assay: NCI in vitro DTP human cell line screen, SF-268; format: cell-based; conditions: CNS Cancer, 1.00E−5 Molar
# Procedure: as §1
# [32] = tested on: IGROV1; assay: NCI in vitro DTP human cell line screen, IGROV1; format: cell-based; conditions: Ovarian Cancer, 1.00E−5 Molar
# Procedure: as §1
# [33] = tested on: MOLT-4; assay: NCI in vitro DTP human cell line screen, MOLT-4; format: cell-based; conditions: Leukemia, 1.00E−5 Molar
# Procedure: as §1
# [34] = tested on: A control cell lines; assay: MTT assay, A control cell lines (lung cancer cell); format: cell-based
# Source text: Please refer to Table 1 and FIGS. 4A-4C. According to a MTT assay (Table 1), various cell viabilities of the A control cell lines can be obtained and illustrated in FIG. 4A while the compounds No. 2˜30 are used to treat A control cell lines, wherein A control cell lines are lung cancer cell.
# [35] = tested on: HOP-92; assay: NCI in vitro DTP human cell line screen, HOP-92; format: cell-based; conditions: Non-Small Cell Lung Cancer, 1.00E−5 Molar
# Procedure: as §1
# [36] = tested on: MDA-MB-231/ATCC; assay: NCI in vitro DTP human cell line screen, MDA-MB-231/ATCC; format: cell-based; conditions: Breast Cancer, 1.00E−5 Molar
# Procedure: as §1
# [37] = tested on: T-47D; assay: NCI in vitro DTP human cell line screen, T-47D; format: cell-based; conditions: Breast Cancer, 1.00E−5 Molar
# Procedure: as §1
# [38] = tested on: KM12; assay: NCI in vitro DTP human cell line screen, KM12; format: cell-based; conditions: Colon Cancer, 1.00E−5 Molar
# Procedure: as §1
# [39] = tested on: OVCAR-8; assay: NCI in vitro DTP human cell line screen, OVCAR-8; format: cell-based; conditions: Ovarian Cancer, 1.00E−5 Molar
# Procedure: as §1
# [40] = tested on: MALME-3M; assay: NCI in vitro DTP human cell line screen, MALME-3M; format: cell-based; conditions: Melanoma, 1.00E−5 Molar
# Procedure: as §1
# [41] = MTT assay, HEL299 fibroblast; format: cell-based; conditions: human
# Source text: Please refer to FIG. 4C, various cell viabilities of the HEL299 cell lines can be obtained through the MTT assay while the compounds No. 1˜30 are used to treat HEL299 cell lines, wherein HEL299 cell lines are fibroblast.
# [42] = tested on: ACHN; assay: NCI in vitro DTP human cell line screen, ACHN; format: cell-based; conditions: Renal Cancer, 1.00E−5 Molar
# Procedure: as §1
# [43] = tested on: NCI-H522; assay: NCI in vitro DTP human cell line screen, NCI-H522; format: cell-based; conditions: Non-Small Cell Lung Cancer, 1.00E−5 Molar
# Procedure: as §1
# [44] = tested on: SK-MEL-2; assay: NCI in vitro DTP human cell line screen, SK-MEL-2; format: cell-based; conditions: Melanoma, 1.00E−5 Molar
# Procedure: as §1
# [45] = tested on: SF-539; assay: NCI in vitro DTP human cell line screen, SF-539; format: cell-based; conditions: CNS Cancer, 1.00E−5 Molar
# Procedure: as §1
# [46] = tested on: NCI-H23; assay: NCI in vitro DTP human cell line screen, NCI-H23; format: cell-based; conditions: Non-Small Cell Lung Cancer, 1.00E−5 Molar
# Procedure: as §1
# [47] = tested on: MDA-MB-468; assay: NCI in vitro DTP human cell line screen, MDA-MB-468; format: cell-based; conditions: Breast Cancer, 1.00E−5 Molar
# Procedure: as §1
# [48] = tested on: UO-31; assay: NCI in vitro DTP human cell line screen, UO-31; format: cell-based; conditions: Renal Cancer, 1.00E−5 Molar
# Procedure: as §1
# [49] = tested on: MCF7; assay: NCI in vitro DTP human cell line screen, MCF7; format: cell-based; conditions: Breast Cancer, 1.00E−5 Molar
# Procedure: as §1
# [50] = tested on: PC-3; assay: NCI in vitro DTP human cell line screen, PC-3; format: cell-based; conditions: Prostate Cancer, 1.00E−5 Molar
# Procedure: as §1
# [51] = tested on: SK-OV-3; assay: NCI in vitro DTP human cell line screen, SK-OV-3; format: cell-based; conditions: Ovarian Cancer, 1.00E−5 Molar
# Procedure: as §1
# [52] = tested on: NCI-H460; assay: NCI in vitro DTP human cell line screen, NCI-H460; format: cell-based; conditions: Non-Small Cell Lung Cancer, 1.00E−5 Molar
# Procedure: as §1
# [53] = tested on: COLO 205; assay: NCI in vitro DTP human cell line screen, COLO 205; format: cell-based; conditions: Colon Cancer, 1.00E−5 Molar
# Procedure: as §1
# [54] = tested on: SNB-75; assay: NCI in vitro DTP human cell line screen, SNB-75; format: cell-based; conditions: CNS Cancer, 1.00E−5 Molar
# Procedure: as §1
# [55] = tested on: NCI/ADR-RES; assay: NCI in vitro DTP human cell line screen, NCI/ADR-RES; format: cell-based; conditions: Ovarian Cancer, 1.00E−5 Molar
# Procedure: as §1
# [56] = tested on: SK-MEL-28; assay: NCI in vitro DTP human cell line screen, SK-MEL-28; format: cell-based; conditions: Melanoma, 1.00E−5 Molar
# Procedure: as §1
# [57] = tested on: U251; assay: NCI in vitro DTP human cell line screen, U251; format: cell-based; conditions: CNS Cancer, 1.00E−5 Molar
# Procedure: as §1
# [58] = tested on: UACC-257; assay: NCI in vitro DTP human cell line screen, UACC-257; format: cell-based; conditions: Melanoma, 1.00E−5 Molar
# Procedure: as §1
structure (smiles),measurement,setting,value
"O=c1c2ccccc2sc2c(Cl)c(SCc3ccc(F)cc3)ccc12 [No. 24, 4-Chloro-3-(4-fluorobenzylthio)-9H-thioxanthen-9-one]",Growth Percent,[1],39.31%
same,Growth Percent,[2],76.97%
same,Growth Percent,[3],91.67%
same,Growth Percent,[4],70.93%
same,Growth Percent,[5],109.87%
same,Growth Percent,[6],93.91%
same,Growth Percent,[7],108.14%
same,Growth Percent,[8],103.70%
same,Growth Percent,[9],105.27%
same,Growth Percent,[10],81.78%
same,Growth Percent,[11],95.97%
same,Growth Percent,[12],77.05%
same,Growth Percent,[13],84.86%
same,Growth Percent,[14],78.63%
same,Growth Percent,[15],68.02%
same,Growth Percent,[16],83.61%
same,Growth Percent,[17],79.24%
same,Growth Percent,[18],89.87%
same,Growth Percent,[19],88.80%
same,"Growth Percent, Mean",[20]; mean over all cell lines,85.42%
same,cancer types with the better inhibition effect (in words),[20]; summary of Table 3,better inhibition effect on Leukemia and central nervous system cancer
same,Growth Percent,[21],92.73%
same,Growth Percent,[22],92.71%
same,cell viabilities of A3 cell lines (MTT assay),[23],47.8%
same,Growth Percent,[24],85.61%
same,Growth Percent,[25],100.08%
same,Growth Percent,[26],92.20%
same,Growth Percent,[27],90.35%
same,Growth Percent,[28],23.41%
same,Growth Percent,[29],67.70%
same,Growth Percent,[30],84.46%
same,Growth Percent,[31],95.00%
same,Growth Percent,[32],79.84%
same,Growth Percent,[33],93.42%
same,cell viabilities of A control cell lines (MTT assay),[34],35.5%
same,Growth Percent,[35],76.43%
same,Growth Percent,[36],81.64%
same,Growth Percent,[37],81.88%
same,Growth Percent,[38],102.36%
same,Growth Percent,[39],85.39%
same,Growth Percent,[40],93.42%
same,viability,[41],62.7 ± 4.89%
same,Growth Percent,[42],60.81%
same,Growth Percent,[43],76.14%
same,Growth Percent,[44],108.61%
same,Growth Percent,[45],103.66%
same,Growth Percent,[46],93.31%
same,Growth Percent,[47],92.16%
same,Growth Percent,[48],95.13%
same,Growth Percent,[49],89.93%
same,Growth Percent,[50],86.19%
same,Growth Percent,[51],90.11%
same,Growth Percent,[52],60.27%
same,Growth Percent,[53],86.59%
same,Growth Percent,[54],64.79%
same,Growth Percent,[55],92.71%
same,Growth Percent,[56],107.78%
same,Growth Percent,[57],54.73%
same,Growth Percent,[58],103.43%
